These results are taken from publication PMC5454592, “Pharmacological and Toxicological Properties of the Potent Oral γ-Secretase Modulator BPN-15606” (The Journal of Pharmacology and Experimental Therapeutics, 2017).

Molecules are shown by their SMILES.

Data set [1] is described as follows: PK in nonhuman primates (i.v./po). Format: in vivo. The note with it: male, cynomolgus monkey, plasma; cynomolgus monkeys; 2 mg/kg po vs 1 mg/kg i.v. As to the method:
Male non-naive cynomolgus monkeys (NHP) were administered BPN-15606 as a single nasogastric (po; 2 mg/kg) or i.v. (1 mg/kg) dose to assess oral bioavailability. Whole-blood samples were collected at specific time points and processed to plasma. Study in-life was conducted at Charles River Laboratories (Reno, NV). Pharmacokinetic (PK) plasma samples were shipped to SRI International for determination of drug concentrations. Samples were analyzed at SRI International using the bioanalytical method described above and validated for NHP plasma, and the LLOQ was 1 ng/ml. Data were subjected to noncompartmental analysis using WinNonlin Phoenix Model 200 (for extravascular administration) or Model 201 (for i.v. bolus administration) and the sparse sampling feature; a uniform weighting factor was applied to each data set. Time to maximum plasma concentration (Tmax) and maximum plasma concentration (Cmax) values were determined directly from the data. Area under the plasma concentration–time curve to the last time point (AUClast) values were calculated using the log/linear trapezoidal (i.v. dose) or linear up/log down trapezoidal (po dose). Values were calculated using the plasma data from composite groups. The dose administered was input to the program as mg/kg, and as a result no additional corrections for individual body weights of the animals were necessary. […]

The next data set concerns HReN-mGAP AD ReN cells. Kind of data set: Three-dimensional human neural cell culture model of AD (MSD ELISA). The conditions noted are these: 70 nM. Format: cell-based. As to the method:
HReN-mGAP AD ReN cell expression APP^Swedish/London and Presenilin 1^ΔE9 were previously described ([Choi et al., 2014]). The HReN-mGAP AD ReN cells were three-dimensional (3D)–differentiated for 7 weeks, as previously described ([Choi et al., 2014]). The cultures were then harvested and analyzed for the soluble (conditioned media) and insoluble Aβ40/42/38 and p-tau/tau levels, using Meso Scale Discovery electrochemiluminescence system. BPN-15606 (70 nM) and the same volume of DMSO controls were treated in the last 4 weeks. The potential toxicity of the drugs was monitored by CytoTox-ONE (lactate dehydrogenase) assay after 1 week of the treatments. At the end of the treatments, the soluble (media) and the insoluble fractions (5 M GuHCl-soluble extracts) were collected and analyzed for Aβ38, Aβ40, and Aβ42 with MSD enzyme-linked immunosorbent assay (ELISA; V-Plex 6E10 Aβ40/Aβ42/Aβ38 kit). The custom-made plates were used for detecting total tau (BT2; ThermoFisher Scientific, Sommerset, NJ) and pThr181 tau (At270; ThermoFisher Scientific, Sommerset, NJ). The insoluble fraction was dissolved in 5 M GuHCl, and pThr181 tau, total tau, Aβ40, Aβ42, and Aβ38 concentrations were determined by MSD ELISA. The levels of the control protein Tuj1 were determined by dot-blot analysis in the GuHCl lysates (data not shown).
Background: In an ELISA, binding on a coated surface is turned into a signal by an enzyme label.

A short description of the next data set: in vivo. The conditions noted are these: both sexes, cynomolgus monkey, po, repeat dose.
For another data set, the target named is γ-secretase (Homo sapiens, UniProt P49768). Kind of data set: anti-Aβ immunoprecipitation/MALDI-TOF of neuronal cells. The class given is cell-based. On the set-up: endogenous in cells; host or cells: 'neuronal cells' (not specified further). The conditions noted are these: neuronal cells treated overnight with 100 nM. As to the method:
All Aβ assays, including the anti-Aβ immunoprecipitation/matrix-assisted laser desorption/ionization time of flight, were carried out as described previously ([Wagner et al., 2014]).

The mark [2] stands for this setting: last 4 weeks of 7-week 3D culture, media.

The bioavailability is the share of a dose that reaches the circulation, judged against a reference dose that is usually intravenous.

On to `COc1nc(-c2cc(C)c(N[C@@H](C)c3ccc(F)cc3)nn2)ccc1-n1cnc(C)c1` [BPN-15606, (S)-N-(1-(4-fluorophenyl)ethyl)-6-(6-methoxy-5-(4-methyl-1H-imidazol-1-yl)pyridin-2-yl)-4-methylpyridazin-3-amine], for which the bioavailability in data set [1] came to 30.8%. Further, in the data set with HReN-mGAP AD ReN cells (setting [2]), the “soluble Aβ38 level” value is “increasing”, the “soluble Aβ40 level” value is on record as “dramatically decreased”, the “soluble Aβ42/40 ratio” value was “dramatically decreased” and the “soluble Aβ42 level” value was “dramatically decreased”. Further, in the data set with HReN-mGAP AD ReN cells (5 M GuHCl-soluble extracts), the “insoluble Aβ40 level” value is given as “decreased”, the “insoluble Aβ42 level” value is on record as “decreased”, the “insoluble pThr181 tau level” value is reported as “decreased” and the “insoluble total tau level” value is “decreased”. The compound further showed an MTD at 6 days in the data set “in vivo” of less than 300 mg/kg/day. On γ-secretase, the “Aβ37 peak (IP/MALDI-TOF)” value is “significantly increased”, the “Aβ38 peak (IP/MALDI-TOF)” value is given as “significantly increased”, the “Aβ40 peak (IP/MALDI-TOF)” value is recorded as “significantly reduce” and the “Aβ42 peak (IP/MALDI-TOF)” value is reported as “completely eliminate the peak”.
